The results in this text go back to patent US5840684A, “Glycopeptide antibiotic derivatives” (Eli Lilly and Company, priority 1995, dated 1998).

Experiment [1] concerns Haemophilus influenzae RD. As to the kind of experiment: broth micro-dilution MIC. It counts as cell-based. The note with it: Haemophilus influenzae RD. As for the experimental part: (§1) The formula I compounds have in vitro and in vivo activity against Gram-positive pathogenic bacteria. The MIC's were determined using a standard broth micro-dilution assay.
The subject of the next experiment is Escherichia coli EC14. The experiment is described as follows: broth micro-dilution MIC. It counts as cell-based. The protocol:
as §1

The subject of experiment [2] is Staphylococcus haemolyticus 105. As to the kind of experiment: broth micro-dilution MIC. The experiment is classed as cell-based. The protocol: as §1
Experiment [3] concerns Staphylococcus epidermidis 270. The experiment is described as follows: broth micro-dilution MIC. The experiment is classed as cell-based. As for the experimental part: as §1
Experiment [4] concerns Streptococcus pneumoniae P1. The experiment is described as follows: broth micro-dilution MIC. It counts as cell-based. The protocol:
as §1

The next experiment deals with Entercoccus faecium 180. The experiment is described as follows: broth micro-dilution MIC. The note with it: Entercoccus faecium 180. The experiment is classed as cell-based. The protocol: as §1
In the next experiment the test system is Entercoccus faecium 2041. As to the kind of experiment: broth micro-dilution MIC. It counts as cell-based. The note with it: Entercoccus faecium 2041. As for the experimental part: as §1
Experiment [5] deals with Staphylococcus haemolyticus 415. As to the kind of experiment: broth micro-dilution MIC. It counts as cell-based. As for the experimental part:
as §1

Experiment [6] deals with Enterococcus gallinarum 245. The experiment is described as follows: broth micro-dilution MIC. The experiment is classed as cell-based. The note with it: Enterococcus gallinarum 245. As for the experimental part:
as §1

Experiment [7] relates to Staphylococcus aureus 447. As to the kind of experiment: broth micro-dilution MIC. The experiment is classed as cell-based. As for the experimental part:
(§2) The MIC's were determined using a standard broth micro-dilution assay.

Experiment [8] has as its system Staphylococcus aureus 446. As to the kind of experiment: broth micro-dilution MIC. It counts as cell-based. The protocol: as §2
The test system of experiment [9] is Staphylococcus aureus X400. The experiment is described as follows: broth micro-dilution MIC. It counts as cell-based. As for the experimental part: as §2
The subject of the next experiment is Entercoccus faecium 276. As to the kind of experiment: broth micro-dilution MIC. The experiment is classed as cell-based. As for the experimental part: as §2
The test system of experiment [10] is Staphylococcus aureus SA1199A. As to the kind of experiment: broth micro-dilution MIC. It counts as cell-based. As for the experimental part:
as §2

In experiment [11] the test system is Staphylococcus aureus 489. As to the kind of experiment: broth micro-dilution MIC. It counts as cell-based. As for the experimental part:
as §2

The subject of experiment [12] is Staphylococcus aureus X778. As to the kind of experiment: broth micro-dilution MIC. The experiment is classed as cell-based. As for the experimental part: as §2
Experiment [13] deals with Streptococcus pyogenes C203. The experiment is described as follows: broth micro-dilution MIC. It counts as cell-based. As for the experimental part: as §2
Experiment [14] concerns Staphylococcus aureus 491. As to the kind of experiment: broth micro-dilution MIC. It counts as cell-based. As for the experimental part: as §2
Experiment [15] relates to Entercoccus faecium 180-1. The experiment is described as follows: broth micro-dilution MIC. It counts as cell-based. As for the experimental part:
as §2

The subject of experiment [16] is Staphylococcus aureus SA1199. The experiment is described as follows: broth micro-dilution MIC. The experiment is classed as cell-based. The protocol: as §2
In experiment [17] the test system is vancomycin-resistant enterococci. As to the kind of experiment: broth micro-dilution, mean geometric MIC. To be noted: enterococci, 24-hour incubation. The experiment is classed as cell-based, Enterococcus faecium and Enterococcus faecalis.
Experiment [18] relates to vancomycin-susceptible enterococci. As to the kind of experiment: broth micro-dilution, mean geometric MIC. It counts as cell-based, Enterococcus faecium and Enterococcus faecalis. The note with it: enterococci, 24-hour incubation.
The test system of experiment [19] is Staphylococcus aureus S13E. It counts as cell-based. As for the experimental part:
as §2

In experiment [20] the test system is Staphylococcus aureus SA1199B. It counts as cell-based. As for the experimental part: as §2

In brackets after ≈: the same amount, converted by molar mass.

For `CC(C)CC(C(=O)NC1C(=O)NC(CC(N)=O)C(=O)NC2C(=O)NC3C(=O)NC(C(=O)NC(C(=O)O)c4cc(O)cc(O)c4-c4cc3ccc4O)C(OC3CC(C)(N)C(O)C(C)O3)c3ccc(c(Cl)c3)Oc3cc2cc(c3OC2OC(CO)C(O)C(O)C2OC2CC(C)(NCc3ccc(-c4ccccc4)cc3)C(O)C(C)O2)Oc2ccc(cc2Cl)C1O)N(C)Cc1ccc(-c2ccccc2)cc1` (stereo not drawn) [Compound 251], the MIC in [1] was > 64 µg/mL; in the experiment on Escherichia coli EC14, > 64 µg/mL; in experiment [2] it was 2 µg/mL (≈ 1.04 µM); in experiment [3], 0.25 µg/mL (≈ 0.13 µM); in [4], ≤ 0.06 µg/mL; against Entercoccus faecium 180 it was 2 µg/mL (≈ 1.04 µM). The MIC against Entercoccus faecium 2041 was ≤ 0.06 µg/mL; in experiment [5], 4 µg/mL (≈ 2.08 µM); in experiment [6], 4 µg/mL (≈ 2.08 µM); in experiment [7] it was 0.125 µg/mL (≈ 0.0649 µM); in experiment [8], 0.25 µg/mL (≈ 0.13 µM); in [9], ≤ 0.06 µg/mL. Further, the MIC (in the experiment with Entercoccus faecium 276; in [10]; in [11]; in experiment [12]; in [13]; in experiment [14]) was ≤ 0.06 µg/mL in each case. The MIC in [15], in experiment [16], in experiment [19] and in [20] was ≤ 0.06 µg/mL in each case. Also, the “mean geometric MIC, Vancomycin Resistant Strains” value in [17] amounted to 2 µg/mL. Moreover, the “mean geometric MIC, Vancomycin Sensitive Strains” value in experiment [18] came out at 0.66 µg/mL.
Regarding `CC(C)CC(C(=O)NC1C(=O)NC(CC(N)=O)C(=O)NC2C(=O)NC3C(=O)NC(C(=O)NC(C(=O)O)c4cc(O)cc(O)c4-c4cc3ccc4O)C(OC3CC(C)(N)C(O)C(C)O3)c3ccc(c(Cl)c3)Oc3cc2cc(c3OC2OC(CO)C(O)C(O)C2OC2CC(C)(N)C(O)C(C)O2)Oc2ccc(cc2Cl)C1O)N(C)Cc1ccc(-c2ccc(Cl)cc2)cc1.O=C(O)C(F)(F)F` (stereo not drawn) [Compound 252], the MIC in experiment [1] is > 64 µg/mL; against Escherichia coli EC14, > 64 µg/mL; in experiment [2], 0.5 µg/mL; in experiment [3], 0.125 µg/mL; in experiment [4] it was ≤ 0.06 µg/mL; in the experiment with Entercoccus faecium 180, 0.5 µg/mL. For the same compound, the MIC against Entercoccus faecium 2041 was ≤ 0.06 µg/mL; in experiment [5], 1 µg/mL; in experiment [6], 1 µg/mL; in experiment [7], ≤ 0.06 µg/mL; in experiment [8], 0.125 µg/mL; in experiment [9], 0.125 µg/mL. Further, the MIC (with Entercoccus faecium 276; in [10]; in experiment [11]; in experiment [12]; in [13]; in experiment [14]) was ≤ 0.06 µg/mL each time. Also, the MIC in [15] is ≤ 0.06 µg/mL; in experiment [16], 0.125 µg/mL; in experiment [19], 0.125 µg/mL; in experiment [20], ≤ 0.06 µg/mL. In addition, the “mean geometric MIC, Vancomycin Resistant Strains” value in [17] worked out at 9.5 µg/mL. Moreover, the “mean geometric MIC, Vancomycin Sensitive Strains” value in experiment [18] amounted to 0.1 µg/mL.
As to `CC(C)CC(C(=O)NC1C(=O)NC(CC(N)=O)C(=O)NC2C(=O)NC3C(=O)NC(C(=O)NC(C(=O)O)c4cc(O)cc(O)c4-c4cc3ccc4O)C(OC3CC(C)(N)C(O)C(C)O3)c3ccc(c(Cl)c3)Oc3cc2cc(c3OC2OC(CO)C(O)C(O)C2OC2CC(C)(NCc3ccc(-c4ccc(Cl)cc4)cc3)C(O)C(C)O2)Oc2ccc(cc2Cl)C1O)N(C)Cc1ccc(-c2ccc(Cl)cc2)cc1.O=C(O)C(F)(F)F` (stereo not drawn) [Compound 253], the MIC in [1] was > 64 µg/mL; against Escherichia coli EC14, > 64 µg/mL; in [2], 16 µg/mL; in [3] it was 8 µg/mL; in [4], 0.125 µg/mL; in the experiment with Entercoccus faecium 180 it was 0.5 µg/mL. Also, the MIC came out at 4 µg/mL in the experiment on Entercoccus faecium 2041; 16 µg/mL in experiment [5]; 16 µg/mL in experiment [6]; 16 µg/mL in experiment [7]; 64 µg/mL in [8]; 32 µg/mL in [9]. In addition, the MIC against Entercoccus faecium 276 was 16 µg/mL; in experiment [10], 1 µg/mL; in [11], 16 µg/mL; in [12] it was 16 µg/mL; in experiment [13], 0.25 µg/mL; in experiment [14] it was 2 µg/mL. Also, the MIC is 0.5 µg/mL in experiment [15], 32 µg/mL in experiment [16], 32 µg/mL in experiment [19] and 32 µg/mL in experiment [20]. The “mean geometric MIC, Vancomycin Resistant Strains” value in [17] is 4.8 µg/mL. Also, in [18], the “mean geometric MIC, Vancomycin Sensitive Strains” value is 3 µg/mL.
On to `CNC(CC(C)C)C(=O)NC1C(=O)NC(CC(N)=O)C(=O)NC2C(=O)NC3C(=O)NC(C(=O)NC(C(=O)O)c4cc(O)cc(O)c4-c4cc3ccc4O)C(OC3CC(C)(NCc4ccc(-c5ccc(Cl)cc5)cc4)C(O)C(C)O3)c3ccc(c(Cl)c3)Oc3cc2cc(c3OC2OC(CO)C(O)C(O)C2OC2CC(C)(NCc3ccc(-c4ccc(Cl)cc4)cc3)C(O)C(C)O2)Oc2ccc(cc2Cl)C1O.O=C(O)C(F)(F)F` (stereo not drawn) [Compound 254], for which the MIC is > 64 µg/mL in [1]; > 64 µg/mL against Escherichia coli EC14; 16 µg/mL in experiment [2]; 8 µg/mL in experiment [3]; ≤ 0.06 µg/mL in experiment [4]; 0.25 µg/mL against Entercoccus faecium 180. In addition, the MIC in the experiment on Entercoccus faecium 2041 amounted to 4 µg/mL; in experiment [5], 16 µg/mL; in experiment [6], 16 µg/mL; in experiment [7], 16 µg/mL; in [8] it was 32 µg/mL; in experiment [9], 8 µg/mL. Also, the MIC against Entercoccus faecium 276 was found to be 8 µg/mL; in experiment [10] it was 0.5 µg/mL; in [11], 16 µg/mL; in experiment [12] it was 4 µg/mL; in experiment [13], 0.5 µg/mL; in experiment [14], 1 µg/mL. The MIC in experiment [15] was 0.25 µg/mL; in [16] it was 8 µg/mL; in experiment [19], 32 µg/mL; in [20], 16 µg/mL. In addition, the “mean geometric MIC, Vancomycin Resistant Strains” value in experiment [17] worked out at 2 µg/mL. Moreover, in [18], the “mean geometric MIC, Vancomycin Sensitive Strains” value came to 0.5 µg/mL.
With `CC(C)CC(C(=O)NC1C(=O)NC(CC(N)=O)C(=O)NC2C(=O)NC3C(=O)NC(C(=O)NC(C(=O)O)c4cc(O)cc(O)c4-c4cc3ccc4O)C(OC3CC(C)(NCc4ccc(-c5ccc(Cl)cc5)cc4)C(O)C(C)O3)c3ccc(c(Cl)c3)Oc3cc2cc(c3OC2OC(CO)C(O)C(O)C2OC2CC(C)(NCc3ccc(-c4ccc(Cl)cc4)cc3)C(O)C(C)O2)Oc2ccc(cc2Cl)C1O)N(C)Cc1ccc(-c2ccc(Cl)cc2)cc1.O=C(O)C(F)(F)F` (stereo not drawn) [Compound 255], the MIC in [1] is > 64 µg/mL; against Escherichia coli EC14, > 64 µg/mL; in experiment [2], > 64 µg/mL; in [3], > 64 µg/mL; in experiment [4], 1 µg/mL; with Entercoccus faecium 180, > 64 µg/mL. In addition, the MIC in the experiment on Entercoccus faecium 2041 is 16 µg/mL; in experiment [5] it was > 64 µg/mL; in experiment [6] it was > 64 µg/mL; in experiment [7], > 64 µg/mL; in [8] it was 64 µg/mL; in [9], > 64 µg/mL. Further, the MIC in the experiment with Entercoccus faecium 276 is > 64 µg/mL; in experiment [10], 16 µg/mL; in experiment [11], > 64 µg/mL; in [12] it was > 64 µg/mL; in [13], 16 µg/mL; in experiment [14] it was > 64 µg/mL. The MIC is 16 µg/mL in [15], > 64 µg/mL in experiment [16], > 64 µg/mL in [19] and > 64 µg/mL in experiment [20]. The “mean geometric MIC, Vancomycin Resistant Strains” value in experiment [17] turned out to be 64 µg/mL. In addition, the “mean geometric MIC, Vancomycin Sensitive Strains” value in [18] was 32 µg/mL.
